The source of these data is paper PMC11643225, “Novel Benzimidazole-Endowed Chalcones as α-Glucosidase and α-Amylase Inhibitors: An Insight into Structural and Computational Studies” (Molecules, 2024).

“Also recorded” adds a separate entry of the source.

The target of one series is yeast α-glucosidase. As to the kind of experiment: yeast α-glucosidase inhibition assay (pNPG substrate). The format is biochemical. To be noted: yeast enzyme, 37 °C. The method, then:
(§1) The in vitro enzyme inhibition assays for the two enzymes, i.e., α-glucosidase and α-amylase, were performed according to the previous studies.
The yeast α-glucosidase inhibition assay was performed using pNPG as substrate. An amount of 100 µL of enzyme was then added to the mixture, and the reaction was incubated at 37 °C for 10 min. After adding 0.5 mM pNPG solution, the reaction continued at 37 °C for 20 min. The enzyme activity was determined by measuring the absorbance of the liberated p-nitrophenol at 405 nm using a microplate spectrophotometer. The results were expressed as a percentage of α-glucosidase inhibition, calculated using the formula “Inhibition (%) = (A control − A sample)/A control × 100”. The final results of the enzyme inhibition assay are represented as IC50 values which refers to the concentration required to block 50% of α-glucosidase activity under the test conditions.

In series [1] the target is T1, type-VI B porcine pancreatic α-amylase (Sus scrofa, UniProt P00690).
T1 construct: performed using type-VI B porcine pancreatic α-amylase, with starch as a substrate; from tissue; host or cells: porcine pancreas
T1 sequence (P00690 16-511): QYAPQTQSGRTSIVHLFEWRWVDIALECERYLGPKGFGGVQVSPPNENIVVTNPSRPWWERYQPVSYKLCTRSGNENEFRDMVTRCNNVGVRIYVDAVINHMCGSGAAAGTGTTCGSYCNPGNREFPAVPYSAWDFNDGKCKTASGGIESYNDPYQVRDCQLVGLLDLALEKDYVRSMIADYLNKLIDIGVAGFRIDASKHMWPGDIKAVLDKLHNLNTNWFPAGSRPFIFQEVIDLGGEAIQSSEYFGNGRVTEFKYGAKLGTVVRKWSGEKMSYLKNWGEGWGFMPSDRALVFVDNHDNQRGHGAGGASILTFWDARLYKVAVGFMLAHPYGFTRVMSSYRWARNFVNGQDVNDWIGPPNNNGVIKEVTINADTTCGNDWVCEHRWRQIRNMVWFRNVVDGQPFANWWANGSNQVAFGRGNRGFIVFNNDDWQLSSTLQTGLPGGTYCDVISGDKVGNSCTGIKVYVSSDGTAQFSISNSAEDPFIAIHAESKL
As to the kind of experiment: α-amylase inhibition assay (starch substrate, DNS reagent). The format is biochemical. As to conditions: porcine pancreatic enzyme, 25 °C, read-out: IC50 (mean ± SD) α-Amylase (converted). The method, then: as §1
The α-amylase inhibition activity was performed using type-VI B porcine pancreatic α-amylase, with starch as a substrate. The enzyme was dissolved in sodium phosphate buffer and the test compound was added at different concentrations. […] The reaction was terminated by adding a DNS reagent and kept in a boiling water bath for 5 min. The resulting mixture was diluted and absorbance was measured at 540 nm using a microplate spectrophotometer.

A further series relates to HEK293 cells. It is filed as cell-based. As to conditions: for cytotoxicity against HEK293 cell lines (in words): MTT, 48 h, 250, 500 and 1000 µg/mL, even at the highest concentration (1000 µg/mL). The method, then:
The Human Embryonic Kidney (HEK-293) cell lines were cultured in Dulbecco’s Modified Eagle Medium (DMEM) supplemented with 10% fetal bovine serum (FBS). The cells were maintained at 37 °C in a humidified atmosphere of 5% CO2. The adherent cells were grown to 70–80% confluency and then harvested by trypsinization (0.25%). The test compounds were dissolved in DMSO and used for all the experiments. DMSO (0.1%) was used as vehicle control and cells cultured in a complete medium without compound served as control.
Briefly, 5 × 10^3 cells (HEK293 cells) were seeded and allowed to adhere overnight. […] Post 48 h, the cells were exposed to MTT (5 mg/mL in phosphate-buffered saline). The formazan crystals were dissolved in DMSO and the absorption was measured at 570 nm using a microplate reader (Tecan Spark, Switzerland). The percentage viability of the cells was determined.

Usually IC50 stands for the concentration needed to halve the response being measured. The term melting point denotes the temperature of the solid-liquid transition. In the case of `COc1ccccc1/C=C/C(=O)c1ccc2c(c1)nc(-c1ccc(OC)c(OC)c1)n2C` [Compound 7c], the melting point was in the range of 159 to 161 °C. In addition, the “IC50 (mean ± SD) α-Glucosidase” value at yeast α-glucosidase came out at 25.21 ± 0.13 c µg/mL. The IC50 in series [1] was 91.9 µM.
Consider `COc1ccc(/C=C/C(=O)c2ccc3c(c2)nc(-c2ccc(OC)c(OC)c2)n3C)cc1OC` [Compound 7e], for which the “IC50 (mean ± SD) α-Glucosidase” value against yeast α-glucosidase was 23.88 ± 0.55 b µg/mL. In addition, the “cytotoxicity against HEK293 cell lines (in words)” value (shortened to “cytotoxicity”) with HEK293 cells is reported as “negligible cytotoxicity”. Also, the IC50 in series [1] is 75.1 µM.
Take `COc1cc(-c2nc3cc(C(=O)/C=C/c4ccccc4Cl)ccc3n2C)cc(OC)c1OC` [Compound 7g]: the melting point is 183 to 184 °C. Also, the “IC50 (mean ± SD) α-Glucosidase” value against yeast α-glucosidase amounted to 29.28 ± 0.35 g µg/mL. Further, the IC50 in series [1] was 61.7 µM.
Take `COc1cc(/C=C/C(=O)c2ccc3c(c2)nc(-c2cc(OC)c(OC)c(OC)c2)n3C)cc(OC)c1OC` [Compound 7l, (E)-1-(1-methyl-2-(3,4,5-trimethoxyphenyl)-1H-benzo[d]imidazol-5-yl)-3-(3,4,5-trimethoxyphenyl)prop-2-en-1-one]: the “IC50 (mean ± SD) α-Glucosidase” value at yeast α-glucosidase is listed as 22.45 ± 0.36 a µg/mL. In addition, the “cytotoxicity” value in the series with HEK293 cells was “negligible cytotoxicity; also recorded: without exerting toxicity”. Besides, in series [1], the IC50 is 39.5 µM.
Take `COc1ccc(-c2nc3cc(C(=O)/C=C/c4ccc(C)cc4)ccc3n2C)cc1OC` [Compound 7b]: the “IC50 (mean ± SD) α-Glucosidase” value on yeast α-glucosidase amounted to 32.10 ± 0.96 i µg/mL. Also, the “cytotoxicity” value with HEK293 cells is “negligible cytotoxicity”. For the same compound, the IC50 in series [1] was 81 µM.
Regarding `COc1ccc(/C=C/C(=O)c2ccc3c(c2)nc(-c2cc(OC)c(OC)c(OC)c2)n3C)cc1OC` [Compound 7k], the melting point was in the range of 137 to 139 °C. In addition, the “IC50 (mean ± SD) α-Glucosidase” value against yeast α-glucosidase was 29.30 ± 0.21 g µg/mL. Moreover, in series [1], the IC50 was 84.4 µM.
For the compound `CO[C@@]12[C@H](COC(N)=O)C3=C(C(=O)C(C)=C(N)C3=O)N1C[C@@H]1N[C@@H]12` [Mitomycin, reference compound], the cell death result in the series on HEK293 cells (HEK293, MTT, 25 µg/mL) is listed as “around 60%”.
As for `COc1ccccc1/C=C/C(=O)c1ccc2c(c1)nc(-c1cc(OC)c(OC)c(OC)c1)n2C` [Compound 7i], the melting point was 176 to 178 °C. The “IC50 (mean ± SD) α-Glucosidase” value against yeast α-glucosidase was 33.20 ± 0.60 J·µg/mL. The IC50 in series [1] is 52.8 µM.
In the same order, the values of `COc1ccc(/C=C/C(=O)c2ccc3c(c2)nc(-c2ccc(OC)c(OC)c2)n3C)cc1` [Compound 7d] are 98 to 100 °C, 26.32 ± 0.52 µg·days/mL and 85 µM.
On the same counts, the results for `COc1ccc(-c2nc3cc(C(=O)/C=C/c4cc(OC)c(OC)c(OC)c4)ccc3n2C)cc1OC` [Compound 7f] are 127 to 129 °C, 28.75 ± 0.12 f µg/mL and 76.4 µM.
In the case of `COc1ccc(/C=C/C(=O)c2ccc3c(c2)nc(-c2cc(OC)c(OC)c(OC)c2)n3C)cc1` [Compound 7j], the melting point fell in the range of 142 to 144 °C. Also, on yeast α-glucosidase, the “IC50 (mean ± SD) α-Glucosidase” value is 27.21 ± 0.36 e µg/mL. In addition, in series [1], the IC50 was 85.6 µM.
Compound `COc1ccc(-c2nc3cc(C(=O)/C=C/c4ccccc4Cl)ccc3n2C)cc1OC` [Compound 7a] returned a melting point of 148 to 150 °C. The “IC50 (mean ± SD) α-Glucosidase” value against yeast α-glucosidase came to 1.26 ± 0.00583 µg·days/mL. Besides, the IC50 in series [1] is 92.7 µM.
The compound `COc1cc(-c2nc3cc(C(=O)/C=C/c4ccc(C)cc4)ccc3n2C)cc(OC)c1OC` [Compound 7h] registered a melting point of 168 to 170 °C. The “IC50 (mean ± SD) α-Glucosidase” value on yeast α-glucosidase turned out to be 36.22 ± 0.58 l µg/mL. The IC50 in series [1] was 68.9 µM.
